The values that follow are results of earlier work, collected in patent US20090318295A1, “Solid herbicidal formulation of N-(phosphono-methyl)glycine and process for its preparation” (priority 2002, published 2009).

In brackets after ≈: the same amount, converted by molar mass.

Consider `O=C(O)CNCP(=O)(O)O` [Glyphosate, N-(phosphonomethyl)glycine], for which the solubility in water is 12 mg/mL (≈ 71 mM).
